In brackets after ≈: the same amount, converted by molar mass. Like-named read-outs stand apart in the source and are kept apart here.
Legend:
[1] = system: H460 cells; assay: Caspase 3/7 apoptosis assay; type: cell-based, human; settings: H460, 24 h
Protocol: Apoptosis induction was determined by activation of Caspases 3 and 7 using the CellEvent™ Caspase-3/7 Green Detection Reagent (Invitrogen). H460 cells were plated at 5 × 10^3 cells/well in black 96-well plates with clear bottoms (Costar) and incubated for 24 h prior to treatments. Cells were treated with the indicated concentration of RPAi or cisplatin for 24 h. The vehicle (DMSO) concentration was held constant at 1% for RPAi treatments. For caspase 3/7 detection, medium was removed and replaced with phosphate buffered saline (PBS) containing 5% fetal bovine serum (FBS) and 2 µM CellEvent™ Caspase-3/7 Green Detection Reagent. Cells were incubated at 37°C/5% CO2 for 1 h, and fluorescence intensity was measured in a BioTek Synergy H1 plate reader (excitation/emission 485/528). Images were captured with an Evos FL2 Auto microscope (Invitrogen) using a 10× objective.
Figure 3 The 329 induction of apoptotic cell death. (A) Analysis of caspase 3/7 activity in H460 cells following 24 h of treatment with 1% DMSO or the indicated concentrations of 329. Fluorescence images were captured as described in the Materials and Methods. (B) Quantification of caspase 3/7 activity. Fluorescence was measured in 96-well plates using a Biotek Synergy H1 plate reader following 24-h incubation with the indicated drugs and concentrations.

[2] = Intrinsic clearance and half-life in mouse microsomes; type: in vitro ADME
From the text: Toward the goal to identify efficacious and safe RPAi 329 treatment regimens, we conducted single-agent screening in two lung cancer cell line-derived xenograft models. […] Having optimized cellular uptake and solubility via the addition of the propyl morpholino in 329 and 2004, we sought to determine how these modifications impact in vivo anticancer activity using two NSCLC models, A549 adenocarcinoma and H460 large cell carcinoma. […] Analyses of intrinsic clearance and half-life were conducted in mouse and rat microsomes ( Table 1 ). […] These values are less than the rate of 48, which is considered rapid clearance. In rat microsomes, rates of ~64 were obtained for 329 and are less than the rapid rate of 71.

[3] = Vehicle/excipient solubility screen; type: physicochemical
Protocol: With favorable potency, cellular activity, plasma stability, and a clear deficit in PK, we initiated a series of studies to assess and optimize a formulation of 329 for in vivo bioavailability. Here, 329 solubility was assessed in a series of additives, excipients, and co-solvents to identify initial favorable vehicles ( Table 2 ). […] A series of different formulations were assessed. The final formulation consisted of polysorbate 80, N-methyl-2-pyrrolidone (NMP), propylene glycol, and PEG 400 (+1.1 mol. eq. HCl added as 12 M HCl), and 329 was soluble up to 20 mg/ml, and 10-fold dilution in PBS was well dispersed with minimal precipitation.

[4] = Pharmacokinetics in mice (plasma, HPLC-MS/MS); type: in vivo; settings: for AUC(0-inf): read-out: AUC 0-inf_obs; for k el: read-out: Lambda_z (converted); for MRT inf: read-out: MRT 0-inf_obs
Protocol: A method to quantify 329 from plasma has been developed using an internal standard, liquid–liquid extraction, and HPLC-MS/MS. Mouse plasma samples were prepared from treated mice at the indicated times frozen at -80°C until analysis. Plasma samples were thawed (20 µl) and transferred to polypropylene tubes, and the internal standard is added (20 µl of 0.1 ng/µl). Samples were diluted in 0.1 M phosphate buffer (pH = 7.4) and equal volume of methyl tertiary butyl ether. The samples were mixed and centrifuged at 12,000×g for 5 min, and the supernatant was transferred to a clean polypropylene tube. The solvent was evaporated to dryness, brought up in mobile phase analyzed by HPLC-MS/MS (ABSciex 4000). The mobile phase is delivered via gradient using acetonitrile and 0.1% formic acid on an Agilent Zorbax 300SB-C8 150 × 4.6 mm, 5-µm column. The mass spectrometer utilized an electrospray ionization probe run in positive mode. Multiple reaction monitoring was employed with Q1/Q3 (m/z) transitions for 329 at 718.2/128.1 and 687.3/128.1 for the internal standard. The lower limit of quantification is 0.1 ng/ml using 20 µl of plasma.
PK parameters were assessed in a series of studies in immunocompetent mice both IV and IP ( Figure 7B and Table 4 ). […] The half-life was also well within acceptable range (9 h).

[5] = parameters: method as in PMID 32550990; settings: cited from earlier work
[6] = IP, DMSO vehicle, 200 mg/kg, mice
[7] = IP, NMP vehicle, 20 mg/kg, mice
[8] = IP, NMP vehicle, 200 mg/kg, mice
[9] = mouse, plasma, ip, 20 mg/kg, IP, NMP vehicle, 20 mg/kg, mice
[10] = mouse, plasma, ip, 20 mg/kg, NMP vehicle, mice
[11] = mouse, plasma, ip, 200 mg/kg, DMSO vehicle, mice
[12] = mouse, plasma, ip, 200 mg/kg, IP, DMSO vehicle, 200 mg/kg, mice
[13] = mouse, plasma, ip, 200 mg/kg, IP, NMP vehicle, 200 mg/kg, mice
[14] = mouse, plasma, ip, 200 mg/kg, NMP vehicle, mice
[15] = mouse, plasma, iv, 2 mg/kg, IV, NMP vehicle, 2 mg/kg, mice
[16] = mouse, plasma, iv, 2 mg/kg, NMP vehicle, mice

In the case of `CCOc1ccc2cc(C3CC(c4ccc(I)cc4)=NN3C(=O)CCCC(=O)NCCCN3CCOCC3)c(Cl)nc2c1` (centres unmarked) [compound 329], the “activation of caspases 3 and 7” value [1] is reported as “induces cell death via a classical apoptotic pathway”, the microsomal CLint ([2]; Mouse microsomes) is reported as 31.7 µL/min/mg and the half-life ([2]; Mouse microsomes, read-out: t1/2) is reported as 0.732 h. For the same compound, the half-life ([2]; mouse, rat, microsomes, in mice and rats, read-out: half-lives) was 0.333 to 0.667 h, the solubility ([3]; 30% SBECD in water, aqueous with cosolvent or surfactant or cyclodextrin, read-out: Solubility) was under 1000 µg/mL and the solubility ([3]; Cremophor EL, aqueous with cosolvent or surfactant or cyclodextrin, read-out: Solubility) was under 1000 µg/mL. It also gave a solubility ([3]; Labrasol, aqueous with cosolvent or surfactant or cyclodextrin, read-out: Solubility) of 1100 µg/mL (≈ 1530 µM), a solubility ([3]; NMP (N-methyl-2-pyrrolidone), organic solvent or mixture, read-out: Solubility) of 70400 µg/mL (≈ 98000 µM) and a solubility ([3]; aqueous buffer, 50 mM sodium acetate pH 4, read-out: Solubility) of under 1000 µg/mL. For the same compound, the solubility ([3]; ethanol, organic solvent or mixture, read-out: Solubility) was under 1000 µg/mL, the solubility ([3]; oleic acid, oil or lipid, read-out: Solubility) was 2400 µg/mL (≈ 3340 µM) and the solubility ([3]; organic solvent or mixture, polysorbate 80, NMP, propylene glycol, PEG 400 (+1.1 mol. eq. HCl), read-out: solubility in final formulation) was at most 20000 µg/mL. For the same compound, the solubility ([3]; polyethylene glycol 400, organic solvent or mixture, read-out: Solubility) was 1200 µg/mL (≈ 1670 µM), the solubility ([3]; polysorbate 80, aqueous with cosolvent or surfactant or cyclodextrin, Polysorbate 8O, read-out: Solubility) was under 1000 µg/mL and the solubility ([3]; propylene glycol, organic solvent or mixture, read-out: Solubility) was 1300 µg/mL (≈ 1810 µM). For the same compound, the solubility ([3]; water, read-out: Solubility) was under 1000 µg/mL, the “AUC and Cmax compared to 551” value ([4]; DMSO/Tween formulation, data not shown) was “significant reduction in AUC and Cmax” and the “AUMC 0-inf_obs” value [4, 6] was 95023.52 ng/ml*h^2. For the same compound, the CI/F_obs [4, 6] was 0.0902 (mg/kg)/(ng/ml)/h, the Vz/F_obs [4, 6] was 4.015 (mg/kg)/(ng/ml) and the “AUMC 0-inf_obs” value [4, 7] was 98489.24 ng/ml*h^2. The CI/F_obs [4, 7] was 0.0012 (mg/kg)/(ng/ml)/h, the Vz/F_obs [4, 7] was 0.011 (mg/kg)/(ng/ml) and the “AUMC 0-inf_obs” value [4, 8] was 947545.56 ng/ml*h^2. For the same compound, the Vz/F_obs [4, 8] was 0.172 (mg/kg)/(ng/ml), the “AUMC 0-inf_obs” value ([4]; IV, NMP vehicle, 2 mg/kg, mice) was 1897.83 ng/ml*h^2 and the CI/F_obs ([4]; IV, NMP vehicle, 2 mg/kg, mice) was 0.0014 (mg/kg)/(ng/ml)/h. The Vz/F_obs ([4]; IV, NMP vehicle, 2 mg/kg, mice) was 0.007 (mg/kg)/(ng/ml), the bioavailability ([4]; mouse, plasma, intraperitoneal, IP at 20 mg/kg versus IV dosing, read-out: absolute bioavailability) was 84% and the AUC(0-inf) [4, 9] was 16500 ng·h/mL. It also gave a k el [4, 9] of 3.06e-05 s⁻¹, an MRT inf [4, 9] of 5.98 h and a half-life ([4]; mouse, plasma, ip, 20 mg/kg, IP, NMP vehicle, 20 mg/kg, mice, read-out: t1/2 (converted)) of 6.3 h. It also gave an AUC(0-t) [4, 10] of 16400 ng·h/mL, a Cmax [4, 10] of 2510 ng/mL and a Tmax [4, 10] of 2 h. For the same compound, the AUC(0-t) [4, 11] was 968 ng·h/mL, the Cmax [4, 11] was 92.1 ng/mL and the Tmax [4, 11] was 0.25 h. It also gave an AUC(0-inf) [4, 12] of 2220 ng·h/mL, a k el [4, 12] of 5.56e-06 s⁻¹ and an MRT inf [4, 12] of 42.8 h. The half-life ([4]; mouse, plasma, ip, 200 mg/kg, IP, DMSO vehicle, 200 mg/kg, mice, read-out: t1/2 (converted)) was 30.9 h, the AUC(0-inf) [4, 13] was 64300 ng·h/mL and the k el [4, 13] was 1.94e-05 s⁻¹. It also gave an MRT inf [4, 13] of 14.7 h, a half-life ([4]; mouse, plasma, ip, 200 mg/kg, IP, NMP vehicle, 200 mg/kg, mice, read-out: t1/2 (converted)) of 9.31 h and a half-life ([4]; mouse, plasma, ip, 200 mg/kg, IP, new formulation, 200 mg/kg, read-out: half-life (converted)) of 9 h. The AUC(0-t) [4, 14] was 52000 ng·h/mL, the Cmax [4, 14] was 2910 ng/mL and the Tmax [4, 14] was 8 h. It also gave an AUC(0-inf) [4, 15] of 1410 ng·h/mL, a k el [4, 15] of 5.83e-05 s⁻¹ and an MRT inf [4, 15] of 1.35 h. It also gave a half-life ([4]; mouse, plasma, iv, 2 mg/kg, IV, NMP vehicle, 2 mg/kg, mice, read-out: t1/2 (converted)) of 3.28 h, an AUC(0-t) [4, 16] of 1400 ng·h/mL and a Cmax [4, 16] of 841 ng/mL. For the same compound, the Tmax [4, 16] was 0.5 h and the “solubility, cellular uptake, and physicochemical properties” value [5] was “excellent”.
